Active and inactive are the calls of the source. The calls are words filed in the database; no cut-off is given here.
Assays:
Escherichia coli = assay: Antibacterial activity against penicillin-susceptible Escherichia coli ATCC 25922 after 24 hrs by broth microdilution method; format: functional; conditions: ATCC 25922, 24 h
Pseudomonas aeruginosa = assay: Antibacterial activity against penicillin-susceptible Pseudomonas aeruginosa ATCC 27853 after 24 hrs by broth microdilution method; format: functional; conditions: ATCC 27853, 24 h
Staphylococcus aureus [1] = assay: Potency index, ratio of ciprofloxacin MIC to test compound MIC for methicillin-resistant Staphylococcus aureus ATCC 43300; format: functional
Staphylococcus aureus [2] = assay: Potency index, ratio of oxacillin sodium MIC to test compound MIC for penicillin-resistant Staphylococcus aureus clinical isolate; format: functional
Streptococcus pyogenes = assay: Potency index, ratio of oxacillin sodium MIC to test compound MIC for penicillin-susceptible Streptococcus pyogenes; format: functional
Bacillus subtilis = assay: Potency index, ratio of ciprofloxacin MIC to test compound MIC for penicillin-susceptible Bacillus subtilis ATCC 9372; format: functional
Staphylococcus aureus [3] = assay: Bactericidal activity against penicillin-susceptible Staphylococcus aureus ATCC 25923 assessed as bacterial levels at 16 ug/ml after 1 hr by time-kill assay (reference value: 6.13 to 6.14 log10CFU/ml); format: functional
Staphylococcus aureus [4] = assay: Bactericidal activity against penicillin-susceptible Staphylococcus aureus ATCC 25923 assessed as bacterial levels at 8 ug/ml after 1 hr by time-kill assay (reference value: 6.13 to 6.14 log10CFU/ml); format: functional
Staphylococcus aureus [5] = assay: Bactericidal activity against penicillin-susceptible Staphylococcus aureus ATCC 25923 assessed as bacterial levels at 16 ug/ml after 2 hrs by time-kill assay (reference value: 6.13 to 6.17 log10CFU/ml); format: functional
Staphylococcus aureus [6] = assay: Bactericidal activity against penicillin-susceptible Staphylococcus aureus ATCC 25923 assessed as bacterial levels at 8 ug/ml after 2 hrs by time-kill assay (reference value: 6.13 to 6.17 log10CFU/ml); format: functional
Staphylococcus aureus [7] = assay: Bactericidal activity against penicillin-susceptible Staphylococcus aureus ATCC 25923 assessed as bacterial levels at 32 ug/ml after 6 hrs by time-kill assay (reference value: 6.13 to 7.54 log10CFU/ml); format: functional
Staphylococcus aureus [8] = assay: Bactericidal activity against penicillin-susceptible Staphylococcus aureus ATCC 25923 assessed as bacterial levels at 8 ug/ml after 12 hrs by time-kill assay (reference value: 6.13 to 8.01 log10CFU/ml); format: functional
[9] = biological target: T1, Cell division protein FtsZ (Bacillus subtilis) (UniProt A5Z1V5); assay: Inhibition of FtsZ in penicillin-susceptible Bacillus subtilis ATCC 9372 assessed as increase in length of bacteria at 0.125 ug/ml after 5 hrs by phase-contrast light microscopic method
T1 sequence (whole entry): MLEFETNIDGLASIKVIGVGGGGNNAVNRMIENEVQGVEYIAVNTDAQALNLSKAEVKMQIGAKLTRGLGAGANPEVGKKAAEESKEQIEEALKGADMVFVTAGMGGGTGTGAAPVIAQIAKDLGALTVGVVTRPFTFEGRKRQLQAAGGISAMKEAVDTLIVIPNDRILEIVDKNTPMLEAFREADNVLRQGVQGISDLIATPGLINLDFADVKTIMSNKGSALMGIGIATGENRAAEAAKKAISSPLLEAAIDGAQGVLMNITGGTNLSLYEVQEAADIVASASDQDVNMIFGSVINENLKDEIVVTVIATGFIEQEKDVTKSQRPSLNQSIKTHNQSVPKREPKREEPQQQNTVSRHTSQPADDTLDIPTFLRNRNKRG

## Cc1cc(-c2ccc(C(F)(F)F)cc2)cc2c3ccccc3c[n+](C)c12.[Cl-]
Escherichia coli
  MIC: > 64 µg/mL
Pseudomonas aeruginosa
  MIC: > 64 µg/mL
Staphylococcus aureus [1]
  Ratio: 64
Staphylococcus aureus [2]
  Ratio: 256
Streptococcus pyogenes
  Ratio: 1
Bacillus subtilis
  Ratio: 33
Staphylococcus aureus [3]
  Activity: 5.89 log10CFU/ml
Staphylococcus aureus [4]
  Activity: 6.05 log10CFU/ml
Staphylococcus aureus [5]
  Activity: 6 log10CFU/ml
Staphylococcus aureus [6]
  Activity: 6.06 log10CFU/ml
Staphylococcus aureus [7]
  Activity: 0 log10CFU/ml
Staphylococcus aureus [8]
  Activity: 5.78 log10CFU/ml
[9]
  inhibition: Active
